Reference: patent US10052331B2, “3-(3H-imidazo[4,5-C]pyridin-2-yl)-1H-pyrazolo[3,4-C]pyridine and therapeutic uses thereof” (Samumed, LLC, priority 2014, dated 2018)

Tests used:
Type in all cases: cell-based
[1] = test system: primary human mesenchymal stem cells (hMSCs); test: Chondrogenesis induction in primary human mesenchymal stem cells (nodule imaging, Rhodamine B/Nile Red); settings: 144 h, 6 days; for EC (100% TGF-beta3 activity): concentration required to induce chondrogenesis equivalent to TGF-β3 positive control, read-out: Conc (nM) of 100% TGF-β3 activity; for Emax: relative to TGF-β3 (10 ng/mL) positive control, read-out: Max. Activity as % TGF-β3 activity
Protocol: The above synthesized compounds were screened using primary human mesenchymal stem cells (hMSCs) to determine their ability to induce chondrogenesis (process by which cartilage is developed).
Primary human mesenchymal stem cells (hMSCs) were purchased from Lonza (Walkersville, Md.) and expanded in Mesenchymal Stem Cell Growth Media (Lonza). Cells between passage 3 and 6 were used for the experiments.
Each compound was dissolved in DMSO as a 10 mM stock and used to prepare compound source plates. Serial dilution (1:3, 6-point dose-response curves from 2700 nM to 10 nM) and compound transfer was performed using the ECHO 550 (Labcyte, Sunnyvale, Calif.) into 96-well clear bottom assay plates (Greiner Bio-One) with appropriate DMSO backfill for a final DMSO concentration of 0.03%. hMSCs were plated at 20,000 cells/well in 250 μL/well Incomplete Chondrogenic Induction Medium (Lonza; DMEM, dexamethasone, ascorbate, insulin-transferrin-selenium [ITS supplement], gentamycin-amphotericin [GA-1000], sodium pyruvate, proline and L-glutamine). TGF-β3 (10 ng/mL) was used as a positive control for differentiation while negative control wells were treated with 75 nL DMSO for normalization and calculating EC50 values. Cells were incubated at 37° C. and 5% CO2 for 6 days. To image chondrogenic nodules, the cells were fixed using 4% formaldehyde (Electron Microscopy Sciences), and stained with 2 μg/mL Rhodamine B (Sigma-Aldrich) and 20 μM Nile Red (Sigma-Aldrich) [Johnson K., et. al, A Stem Cell-Based Approach to Cartilage Repair, Science, (2012), 336(6082), 717-721]. The nodules imaged (4 images per well at 4× magnification) by excitation at 531 nm and emission at 625 nm and quantified using the CellInsight CX5 (Thermo Scientific). Number of nodules in each well was normalized to the average of 3 DMSO treated wells on the same plate using Excel (Microsoft Inc.). The normalized averages (fold change over DMSO) of 3 replicate wells for each compound concentration were calculated. Due to solubility limitations of some of the compounds, curve fitting was incomplete leading to inaccurate EC50 determinations.
Using TGF-03 as a positive control, the concentration of test compounds required to induce equivalent levels of chondrogenesis is reported. In addition, the maximum activity of each compound and the respective dose that each compound reached maximum chondrogenesis activity is reported.

[2] = test system: primary human fibroblasts derived from IPF patients (LL29 cells); test: Inhibition of fibrotic process: αSMA staining in TGF-β1-treated primary human fibroblasts from IPF patients (LL29 cells); settings: Fibroblast, 96 h, LL29 cells treated with TGF-β1 (20 ng/mL), 4 days, 11-point dose-response from 10 μM to 1.87 nM, read-out: Inhibition of fibrosis EC50
In short: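 LL29 IPF lung fibroblasts in F12 with 1% FBS, compound (11-point, 10 μM to 1.87 nM, 0.1% DMSO) plus TGF-β1 20 ng/mL for 4 days at 37° C. αSMA-positive % of SYTOX-negative cells by immunofluorescence imaging, normalized to TGF-β1 wells; EC50 from non-linear regression of triplicates.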

[3] = test system: Wnt activity (Wnt-responsive Sp5 promoter-luciferase reporter in SW480 cells); test: Wnt activity screening assay: Sp5-Luc reporter gene in SW480 colon carcinoma cells; settings: Homo sapiens
In short: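 IC50 values come from variable-slope four-parameter fits of luciferase signal normalized to DMSO wells. Stable Sp5-Luc reporter SW480 colon carcinoma cells were exposed to compounds in a 3-fold dilution series (source plates from 10 mM stock) for forty-two hours at 37 °C.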

[4] = test system: ARPE-19 cells; test: Transdifferentiation of ARPE-19 cells into eye neuronal cells [photoreceptors] (PAX6 staining); settings: Homo sapiens, 40 hours, normalized to DMSO
Protocol: The above synthesized compounds were screened using ARPE-19 cells [a spontaneously arising retinal pigment epithelia (RPE) cell line] to determine their ability to transdifferentiate ARPE-19 into eye neuronal cells [photoreceptors].
ARPE-19 cells are cultured in standard culture medium containing Dulbecco's Modified Eagle's Medium and Ham's F12 Nutrient Mixture (DMEM/F12) mix (1:1)+GlutaMax with 1% penicillin-Streptomycin and 10% FBS (Fetal Bovine Serum). Cells are incubated at 37° C. with 5% CO2. Cells are trypsinized and plated onto 384-well pre-spotted plate at a density of 3000 cells/well in 50 uL of media. Plating media: DMEM/F12 (1:1)+3% charcoal filtered-FBS+GlutaMax+1% pen/Strep. Cells are incubated at 37° C. with 5% CO2. At 40 hours, cells were fixed for 15 min with 10% Buffered Formalin. Cells were then washed 3 times with PBS for 5 min each, permeablize using 0.3% Triton X-100 in 1×PBS for 30 min, block for 1 hr with 2% BSA in 1×PBS with 0.1% Triton X-100. The primary antibody (1:100 PAX6 Santa Cruz Biotech; sc-81649) was diluted and 10 μL/well was added to the cells. The cells were incubated overnight at 4° C. […] Readings were normalized to DMSO only treated cells, and normalized activities were utilized for EC50 calculations using the dose-response log (activator) vs. response-variable slope (four parameters) nonlinear regression feature available in GraphPad Prism 5.0 or 6.0.

CCNCc1cncc(-c2cc3c(-c4nc5c(-c6cccc(F)c6)cncc5[nH]4)n[nH]c3cn2)c1 [Compound 6, N-((5-(3-(7-(3-Fluorophenyl)-3H-imidazo[4,5-c]pyridin-2-yl)-1H-pyrazolo[3,4-c]pyridin-5-yl)pyridin-3-yl)methyl)ethanamine]
EC (100% TGF-beta3 activity) [1]: 136 nM | Emax [1]: 300% | EC50 [2]: 511 nM | IC50 [3]: 13.5 nM

CCNCc1cncc(-c2cc3c(-c4nc5c(-c6ccc(F)cc6)cncc5[nH]4)n[nH]c3cn2)c1 [Compound 32, N-((5-(3-(7-(4-Fluorophenyl)-3H-imidazo[4,5-c]pyridin-2-yl)-1H-pyrazolo[3,4-c]pyridin-5-yl)pyridin-3-yl)methyl)ethanamine]
EC (100% TGF-beta3 activity) [1]: 110 nM | EC50 [2]: ≤ 9 nM | IC50 [3]: 14.3 nM

FC1(F)CCN(Cc2cncc(-c3cc4c(-c5nc6c(N7CCCCC7)cncc6[nH]5)n[nH]c4cn3)c2)C1 [Compound 181, 5-(5-((3,3-Difluoropyrrolidin-1-yl)methyl)pyridin-3-yl)-3-(7-(piperidin-1-yl)-3H-imidazo[4,5-c]pyridin-2-yl)-1H-pyrazolo[3,4-c]pyridine]
EC (100% TGF-beta3 activity) [1]: 100 nM | Emax [1]: 10% | EC50 [2]: ≤ 9 nM | IC50 [3]: 44.8 nM

CCCC(=O)Nc1cncc(-c2cc3c(-c4nc5c(-c6ccsc6)cncc5[nH]4)n[nH]c3cn2)c1 [Compound 251, N-(5-(3-(7-(Thiophen-3-yl)-3H-imidazo[4,5-c]pyridin-2-yl)-1H-pyrazolo[3,4-c]pyridin-5-yl)pyridin-3-yl)butyramide]
EC (100% TGF-beta3 activity) [1]: 42 nM | EC50 [2]: ≤ 9 nM | IC50 [3]: 33 nM

CCC(=O)Nc1cncc(-c2cc3c(-c4nc5c(-c6cccs6)cncc5[nH]4)n[nH]c3cn2)c1 [Compound 287, N-(5-(3-(7-(Thiophen-2-yl)-3H-imidazo[4,5-c]pyridin-2-yl)-1H-pyrazolo[3,4-c]pyridin-5-yl)pyridin-3-yl)propionamide]
EC (100% TGF-beta3 activity) [1]: 84.2 nM | Emax [1]: 300% | EC50 [2]: 319 nM | IC50 [3]: 30.6 nM

CC(C)CC(=O)Nc1cncc(-c2cc3c(-c4nc5c(-c6ccc(F)s6)cncc5[nH]4)n[nH]c3cn2)c1 [Compound 314, N-(5-(3-(7-(5-Fluorothiophen-2-yl)-3H-imidazo[4,5-c]pyridin-2-yl)-1H-pyrazolo[3,4-c]pyridin-5-yl)pyridin-3-yl)-3-methylbutanamide]
EC (100% TGF-beta3 activity) [1]: 180 nM | Emax [1]: 900% | EC50 [2]: 173 nM | IC50 [3]: 7.4 nM

CC(C)(C)C(=O)Nc1cncc(-c2cc3c(-c4nc5c(-c6ccc(F)s6)cncc5[nH]4)n[nH]c3cn2)c1 [Compound 320, N-(5-(3-(7-(5-Fluorothiophen-2-yl)-3H-imidazo[4,5-c]pyridin-2-yl)-1H-pyrazolo[3,4-c]pyridin-5-yl)pyridin-3-yl)pivalamide]
EC (100% TGF-beta3 activity) [1]: 41 nM | EC50 [2]: 103 nM | IC50 [3]: 3.7 nM

Cc1ccc(-c2cncc3[nH]c(-c4n[nH]c5cnc(-c6cncc(N)c6)cc45)nc23)s1 [Compound 341, 5-(3-(7-(5-Methylthiophen-2-yl)-3H-imidazo[4,5-c]pyridin-2-yl)-1H-pyrazolo[3,4-c]pyridin-5-yl)pyridin-3-amine]
EC (100% TGF-beta3 activity) [1]: 162 nM | Emax [1]: 100% | EC50 [2]: ≤ 9 nM | IC50 [3]: 5.8 nM

Cc1ccc(-c2cncc3[nH]c(-c4n[nH]c5cnc(-c6cncc(NC(=O)C7CCC7)c6)cc45)nc23)s1 [Compound 358, N-(5-(3-(7-(5-Methylthiophen-2-yl)-3H-imidazo[4,5-c]pyridin-2-yl)-1H-pyrazolo[3,4-c]pyridin-5-yl)pyridin-3-yl)cyclobutanecarboxamide]
EC (100% TGF-beta3 activity) [1]: 231 nM | Emax [1]: 100% | EC50 [2]: 19 nM | IC50 [3]: 6.7 nM

CCCC(=O)Nc1cncc(-c2cc3c(-c4nc5c(-c6cc(F)cc(CNS(C)(=O)=O)c6)cncc5[nH]4)n[nH]c3cn2)c1 [Compound 407, N-(5-(3-(7-(3-Fluoro-5-(methylsulfonamidomethyl)phenyl)-3H-imidazo[4,5-c]pyridin-2-yl)-1H-pyrazolo[3,4-c]pyridin-5-yl)pyridin-3-yl)butyramide]
EC (100% TGF-beta3 activity) [1]: 79.2 nM | Emax [1]: 30% | EC50 [2]: > 10000 nM | IC50 [3]: 23.9 nM

Cn1cc(-c2cc3c(-c4nc5c(-c6cccc(F)c6)cncc5[nH]4)n[nH]c3cn2)cn1 [Compound 888, 3-(7-(3-Fluorophenyl)-3H-imidazo[4,5-c]pyridin-2-yl)-5-(1-methyl-1H-pyrazol-4-yl)-1H-pyrazolo[3,4-c]pyridine]
EC (100% TGF-beta3 activity) [1]: 71 nM | Emax [1]: 100% | EC50 [2]: ≤ 9 nM | IC50 [3]: 70 nM

NC1CN(c2cncc(-c3cc4c(-c5nc6c(-c7cccc(F)c7)cncc6[nH]5)n[nH]c4cn3)n2)C1 [Compound 890, 1-(6-(3-(7-(3-Fluorophenyl)-3H-imidazo[4,5-c]pyridin-2-yl)-1H-pyrazolo[3,4-c]pyridin-5-yl)pyrazin-2-yl)azetidin-3-amine]
EC50 [4]: 9 nM | EC50 [2]: 88 nM | IC50 [3]: 103 nM

CN(C)CCOc1cncc(-c2cc3c(-c4nc5c(-c6cccc(F)c6)cncc5[nH]4)n[nH]c3cn2)c1 [Compound 895, 2-((5-(3-(7-(3-Fluorophenyl)-3H-imidazo[4,5-c]pyridin-2-yl)-1H-pyrazolo[3,4-c]pyridin-5-yl)pyridin-3-yl)oxy)-N,N-dimethylethan-1-amine]
EC50 [4]: 162 nM | EC50 [2]: ≥ 9990 nM | IC50 [3]: 437 nM

COc1cncc(-c2cc3c(-c4nc5c(-c6cccc(F)c6)cncc5[nH]4)n[nH]c3cn2)c1 [Compound 896, 3-(7-(3-Fluorophenyl)-3H-imidazo[4,5-c]pyridin-2-yl)-5-(5-methoxypyridin-3-yl)-1H-pyrazolo[3,4-c]pyridine]
EC (100% TGF-beta3 activity) [1]: 140 nM | Emax [1]: 300% | EC50 [2]: ≤ 9 nM | IC50 [3]: 31 nM
